Experimental data taken from patent US11154563B2, “Immunoproteasome inhibitors” (Principia Biopharma Inc., priority 2017, dated 2021).

Legend:
Assay type in all cases: biochemical
[1] = biological target: immunoproteasome LPM2/β1i subunit (Homo sapiens, UniProt P28065+P40306); test: Caliper-based proteasome enzymatic activity assay, LMP2; settings: human recombinant immunoproteasome 0.3 nM, FAM-peptide substrate 1 μM, 2 h at rt
Description: A Caliper-based proteasome assay (Caliper Life Sciences, Hopkinton, Mass.) was used to measure inhibition of the immunoproteasome LMP7/B5i subunit, the immunoproteasome LPM2/β1i subunit, and the constitutive proteasome β5c unit for a compound of Formula (I). For LMP7 and β5c, serial dilutions of test compounds were incubated with either human recombinant immunoprotcasome or constitutive proteasome (0.3 nM enzyme) and a carboxyfluorescein (FAM)-labeled peptide substrate FAM-TYETFKSIMKKSPF-NH2 (1 μM) at it for 3 h. The reaction was then terminated with a buffer containing the known proteasome inhibitor carfilzomib at a concentration of 5 uM. For LMP2, serial dilutions of test compounds were incubated with human recombinant immunoproteasome proteasome (0.3 nM enzyme) and a carboxyfluorescein (FAM)-labeled peptide substrate FAM-[…]-NH2 (1 μM) at rt for 2 h. The reaction was then terminated with a buffer containing the known proteasome inhibitor ixazomib at a concentration of 6.7 uM. The reaction buffer was 20 mM Hepes pH 7.4, 0.01% bovine serum albumin, 0.015% SDS, 0.5 mM EDTA, 1%0/DMSO. The peptide cleavage reaction product was quantified on a Caliper LabChip 3000. Percent inhibition was calculated for each compound dilution and the concentration that produced 50% inhibition was calculated. This value is presented as the IC50.

[2] = biological target: constitutive proteasome β5c unit (Homo sapiens, UniProt P20618+P28074); test: Caliper-based proteasome enzymatic activity assay, β5c; settings: human recombinant constitutive proteasome 0.3 nM, FAM-peptide substrate 1 μM, 3 h at rt; read-out: β5c subunit IC50
Procedure, shortened: (§1)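 Recombinant human immunoproteasome or constitutive proteasome (0.3 nM) with 1 μM FAM-peptide in 20 mM Hepes pH 7.4, 0.015% SDS, 0.01% BSA; LMP7/β5c ran 3 h at rt and were stopped with 5 uM carfilzomib, LMP2 ran 2 h and was stopped with 6.7 uM ixazomib. Cleaved product quantified by microfluidic separation; IC50 from percent inhibition.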

[3] = biological target: immunoproteasome LMP7/B5i subunit (Homo sapiens, UniProt P20618+P28062); test: Caliper-based proteasome enzymatic activity assay, LMP7; settings: human recombinant immunoproteasome 0.3 nM, FAM-peptide substrate 1 μM, 3 h at rt
Procedure, shortened: as §1

Structure (SMILES) | IC50 [1] | IC50 [2] | IC50 [3]
CC(C)(C=C(C#N)C(=O)N1CCCC[C@@H]1COC(=O)N[C@@H](Cc1ccccc1)B(O)O)N1CCCCC1 [Example 30, ((R)-1-(((((R)-1-(2-cyano-4-methyl-4-(piperidin-1-yl)pent-2-enoyl)piperidin-2-yl)methoxy)carbonyl)amino)-2-phenylethyl)boronic acid] | > 5000 nM | > 5000 nM | 16 nM
CC(C)(C=C(C#N)C(=O)N1CCCC[C@@H]1COC(=O)N[C@@H](Cc1ccccc1)B(O)O)N1CCC(F)(F)CC1 [Example 31, ((R)-1-(((((R)-1-(2-cyano-4-(4,4-difluoropiperidin-1-yl)-4-methylpent-2-enoyl)piperidin-2-yl)methoxy)carbonyl)amino)-2-phenylethyl)boronic acid] | > 5000 nM | 2390 nM | 12 nM
Cc1ccc(C[C@H](NC(=O)OC[C@H]2CCCCCN2C(=O)C(C#N)=CC(C)(C)C)B(O)O)cc1 [Example 32, ((R)-1-(((((R)-1-(2-cyano-4,4-dimethylpent-2-enoyl)azepan-2-yl)methoxy)carbonyl)amino)-2-(p-tolyl)ethyl)boronic acid] | > 5000 nM | 713 nM | 9.2 nM
Cc1ccc(C[C@H](NC(=O)OC[C@@H]2CCCCCN2C(=O)C(C#N)=CC(C)(C)C)B(O)O)cc1 [Example 33, ((R)-1-(((((S)-1-(2-cyano-4,4-dimethylpent-2-enoyl)azepan-2-yl)methoxy)carbonyl)amino)-2-(p-tolyl)ethyl)boronic acid] | > 5000 nM | > 5000 nM | 41 nM
CC(C)(C=C(C#N)C(=O)N1CCC[C@@H]1COC(=O)N[C@@H](Cc1ccccc1)B(O)O)N1CCCC1 [Example 34, ((R)-1-(((((R)-1-(2-cyano-4-methyl-4-(pyrrolidin-1-yl)pent-2-enoyl)pyrrolidin-2-yl)methoxy)carbonyl)amino)-2-phenylethyl)boronic acid] | > 5000 nM | 3370 nM | 14 nM
CC(C)(C=C(C#N)C(=O)N1CCC[C@@H]1COC(=O)N[C@@H](Cc1ccccc1)B(O)O)N1CCC(F)(F)C1 [Example 35, ((R)-1-(((((R)-1-(2-cyano-4-(3,3-difluoropyrrolidin-1-yl)-4-methylpent-2-enoyl)pyrrolidin-2-yl)methoxy)carbonyl)amino)-2-phenylethyl)boronic acid] | > 5000 nM | 3020 nM | 2 nM
C=CC(=O)N1CCC[C@@H]1COC(=O)N[C@@H](Cc1coc2ccccc12)B(O)O [Example 36, ((R)-1-(((((R)-1-acryloylpyrrolidin-2-yl)methoxy)carbonyl)amino)-2-(benzofuran-3-yl)ethyl)boronic acid] | > 5000 nM | 397 nM | 6.9 nM
CC(C)(C)C=C(C#N)C(=O)N1C[C@H]2C[C@H]2[C@@H]1COC(=O)N[C@@H](Cc1ccccc1)B(O)O [Example 37, ((R)-1-(((((1R,2R,5S)-3-(2-cyano-4,4-dimethylpent-2-enoyl)-3-azabicyclo[3.1.0]hexan-2-yl)methoxy)carbonyl)amino)-2-phenylethyl)boronic acid] | > 5000 nM | 1960 nM | 4 nM
CC(C)(C)C=C(C#N)C(=O)N1C[C@@H]2C[C@@H]2[C@H]1COC(=O)N[C@@H](Cc1ccccc1)B(O)O [Example 38] | > 5000 nM | > 5000 nM | 7 nM
CC(C)(C)C=C(C#N)C(=O)N1CCC[C@@H]1COC(=O)N[C@@H](Cc1coc2ccccc12)B(O)O [Example 39, ((R)-2-(benzofuran-3-yl)-1-(((((R)-1-(2-cyano-4,4-dimethylpent-2-enoyl)pyrrolidin-2-yl)methoxy)carbonyl)amino)ethyl)boronic acid] | > 5000 nM | 187 nM | 1.2 nM
CC(C)(C=C(C#N)C(=O)N1CCC[C@@H]1COC(=O)N[C@@H](Cc1coc2ccccc12)B(O)O)N1CCOCC1 [Example 40, ((R)-2-(benzofuran-3-yl)-1-(((((R)-(2-cyano-4-methyl-4-morpholinopent-2-enoyl)pyrrolidin-2-yl)methoxy)carbonyl)amino)ethyl)boronic acid] | > 5000 nM | 228 nM | 1.3 nM
Cc1ccc(C[C@H](NC(=O)OC[C@H]2CCCCN2C(=O)C(C#N)=CC(C)(C)N2CCC(F)(F)C2)B(O)O)cc1 [Example 41, ((R)-1-(((((R)-1-(2-cyano-4-(3,3-difluoropyrrolidin-1-yl)-4-methylpent-2-enoyl)piperidin-2-yl)methoxy)carbonyl)amino)-2-(p-tolyl)ethyl)boronic acid] | > 5000 nM | 518 nM | 1.6 nM
CC1(C=C(C#N)C(=O)N2CCCC[C@@H]2COC(=O)N[C@@H](Cc2coc3ccccc23)B(O)O)CCOCC1 [Example 59, ((R)-2-(benzofuran-3-yl)-1-(((((R)-1-(2-cyano-3-(4-methyltetrahydro-2H-pyran-4-yl)acryloyl)piperidin-2-yl)methoxy)carbonyl)amino)ethyl)boronic acid] | > 5000 nM | 372 nM | 2.8 nM
CC(C)(C=C(C#N)C(=O)N1C[C@@H]2C[C@@H]2[C@@H]1COC(=O)N[C@@H](Cc1ccccc1)B(O)O)N1CCOCC1 [Example 67, ((R)-1-(((((1S,2R,5R)-3-(2-cyano-4-methyl-4-morpholinopent-2-enoyl)-3-azabicyclo[3.1.0]hexan-2-yl)methoxy)carbonyl)amino)-2-phenylethyl)boronic acid] | > 5000 nM | 2310 nM | 1 nM

Second part, the molecule after the results:

IC50 [1] | IC50 [2] | IC50 [3] | Structure (SMILES)
> 5000 nM | > 5000 nM | 1.8 nM | CC(C)(C)C=C(C#N)C(=O)N1C[C@H]2C[C@H]2[C@H]1COC(=O)N[C@@H](Cc1ccccc1)B(O)O [Example 22, ((R)-1-(((((1R,2S,5S)-3-(2-cyano-4,4-dimethylpent-2-enoyl)-3-azabicyclo[3.1.0]hexan-2-yl)methoxy)carbonyl)amino)-2-phenylethyl)boronic acid]
> 5000 nM | > 5000 nM | 2.6 nM | CC(C)(C=C(C#N)C(=O)N1CCC[C@@H]1COC(=O)N[C@@H](Cc1ccccc1)B(O)O)N1CCOCC1 [Example 23, ((R)-1-(((((R)-1-(2-cyano-4-methyl-4-morpholinopent-2-enoyl)pyrrolidin-2-yl)methoxy)carbonyl)amino)-2-phenylethyl)boronic acid]
> 5000 nM | 1390 nM | 3.7 nM | Cc1ccc(C[C@H](NC(=O)OC[C@H]2CCCCN2C(=O)C(C#N)=CC(C)(C)C)B(O)O)cc1 [Example 24, ((R)-1-(((((R)-1-(2-cyano-4,4-dimethylpent-2-enoyl)piperidin-2-yl)methoxy)carbonyl)amino)-2-(p-tolyl)ethyl)boronic acid]
> 5000 nM | 172 nM | 0.6 nM | CC(C)(C)C=C(C#N)C(=O)N1CCCC[C@@H]1COC(=O)N[C@@H](Cc1coc2ccccc12)B(O)O [Example 25, ((R)-2-(benzofuran-3-yl)-1-(((((R)-1-(2-cyano-4,4-dimethylpent-2-enoyl)piperidin-2-yl)methoxy)carbonyl)amino)ethyl)boronic acid]
> 5000 nM | 2110 nM | 1.2 nM | CC(C)(C)C=C(C#N)C(=O)N1C[C@@H]2C[C@@H]2[C@@H]1COC(=O)N[C@@H](Cc1ccccc1)B(O)O [Example 26]
> 5000 nM | 3480 nM | 11 nM | CC(C)(C=C(C#N)C(=O)N1CCCC[C@@H]1COC(=O)N[C@@H](Cc1ccccc1)B(O)O)N1CCCC1 [Example 27]
> 5000 nM | 2190 nM | 1.5 nM | CC(C)(C=C(C#N)C(=O)N1CCCC[C@@H]1COC(=O)N[C@@H](Cc1ccccc1)B(O)O)N1CCC(F)(F)C1 [Example 28, ((R)-1-(((((R)-1-(2-cyano-4-(3,3-difluoropyrrolidin-1-yl)-4-methylpent-2-enoyl)piperidin-2-yl)methoxy)carbonyl)amino)-2-phenylethyl)boronic acid]
> 5000 nM | 3400 nM | 2.9 nM | CC(C)(C=C(C#N)C(=O)N1CCCC[C@@H]1COC(=O)N[C@@H](Cc1ccccc1)B(O)O)N1CCOCC1 [Example 29, ((R)-1-(((((R)-1-(2-cyano-4-methyl-4-morpholinopent-2-enoyl)piperidin-2-yl)methoxy)carbonyl)amino)-2-phenylethyl)boronic acid]
3360 nM | 925 nM | 1.2 nM | CC(C)(C=C(C#N)C(=O)N1C[C@@H]2C[C@@H]2[C@@H]1COC(=O)N[C@@H](Cc1ccccc1)B(O)O)N1CCC(F)(F)C1 [Example 74, ((R)-1-(((((1S,2R,5R)-3-(2-cyano-4-(3,3-difluoropyrrolidin-1-yl)-4-methylpent-2-enoyl)-3-azabicyclo[3.1.0]hexan-2-yl)methoxy)carbonyl)amino)-2-phenylethyl)boronic acid]
